Earlier results as cited in patent US20070225258A1, “COMPOSITIONS COMPRISING BISPHOSPHONATE AND AN ANTIFOLATE” (PROPRIUS PHARMACEUTICALS, INC., priority 2006, published 2007).

Tested on: patients with RA

CN(Cc1cnc2nc(N)nc(N)c2n1)c1ccc(C(=O)N[C@@H](CCC(=O)O)C(=O)O)cc1 [methotrexate]
Proportion of RA patients in whom treatment is effective: effective in only one in three patients
